Measured values from patent publication US20060052435A1, “Selective dopamin d3 receptor agonists for the treatment of sexual dysfunction” (priority 2001, published 2006).
pEC50, pKi: −log10 of the molar value. Where two headings read alike, the source gives them in different places.

Experiments:
[1] = target: human dopamine D2 long receptor (Homo sapiens, UniProt P14416)
ferrets = assay: 7-OH-DPAT-induced emesis in the ferret; assay type: in vivo; conditions: for Antagonist potency ED100 versus 7-OH-DPAT-induced emesis: s.c., minimum dose completely inhibiting emesis in all animals, n = 3
[2] = ferret, in vivo, sc
[3] = target: human recombinant D2short (hD2s) receptors (Homo sapiens, UniProt P14416); assay: inhibition of binding of [3H]-spiperone; conditions: n = 3-11
anaesthetised dog [4] = assay: haemodynamics in the anaesthetised dog; assay type: in vivo
Excerpt: Male beagles were anaesthetised with a mixture of chloralose and urethane, following pre-medication with piritramide. They were instrumented to measure arterial blood pressure, cardiac output, E.C.G., pudendal artery blood flow (PAF) and intra-cavernosal pressure (ICP). Other parameters such as heart rate and vascular resistance were derived from the primary signals. Following a period of equilibration, a series of control readings were taken and the effects of pelvic nerve stimulation at 4 and 8 Hz, on ICP and PAF were measured. Compounds were administered subcutaneously in the dorsal neck region via an implanted catheter, in the dose range of 0.3-3000 μg(base)/kg. Following each dose, parameters were measured at fixed intervals for 30 min.
Results were analysed as percent change from the final control values for each dog and mean values for three dogs were used.

telemetry rats = assay: rat telemetry model of erection (intracavernosal pressure); assay type: in vivo; conditions: for proerectile effect (words): male models of erection / telemetry rats, agonist alone; for agonist-induced erectile activity with concomitant L-741,626 and SB-277,011: L-741,626 2 mg/kg s.c. and SB-277,011 3 mg/kg s.c.
Description: Erectile responses were recorded by measuring intracavernosal pressure and/or clitoral/vaginal blood flow using surgically implanted telemetric device. The specific details of the surgical procedures, data acquisition and analysis can be found in detail in Bernabe J, Rampin O, Sachs B D, Giuliano F. Intracavernous pressure during erection in rats: an integrative approach based on telemetric recording. Am. J. Physiol.

[5] = target: D3 receptors over D2 receptors (Homo sapiens, UniProt P35462); conditions: GTPγS assay; cited from earlier work
New Zealand rabbits = assay: male and female anaesthetised rabbit, pelvic nerve stimulation; assay type: in vivo
Description: 1.1.1 Male and Female Anaesthetised Rabbit Methodology
Male and female New Zealand rabbits (˜2.5 kg) were pre-medicated with a combination of Medetomidine (Domitor®) 0.5 ml/kg i.m., and Ketamine (Vetalar®) 0.25 ml/kg i.m. whilst maintaining oxygen intake via a face mask. The rabbits were tracheotomised using a Portex™ uncuffed endotracheal tube 3 ID., connected to ventilator and maintained at a ventilation rate of 30-40 breaths per minute, with an approximate tidal volume of 18-20 ml, and a maximum airway pressure of 10 cm H2O. Anaesthesia was then switched to Isoflurane and ventilation continued with O2 at 2 l/min. The right marginal ear vein was cannulated using a 23 G or 24 G catheter, and Lactated Ringer solution perfused at 0.5 ml/min. The rabbit was maintained at 3% Isoflurane during invasive surgery, dropping to 2% for maintenance anaesthesia. The left jugular vein was exposed, isolated and then cannulated with a PVC catheter (17 G) for the infusion of drugs and compounds.
The left groin area of the rabbit was shaved and a vertical incision was made approximately 5 cm in length along the thigh. The femoral vein and artery were exposed, isolated and then cannulated with a PVC catheter (17 G) for the infusion of drugs and compounds. Cannulation was repeated for the femoral artery, inserting the catheter to a depth of 10 cm to ensure that the catheter reached the abdominal aorta. This arterial catheter was linked to a Gould system to record blood pressure. Samples for blood gas analysis were also taken via the arterial catheter. Systolic and diastolic pressures were measured, and the mean arterial pressure calculated using the formula (diastolic×2+systolic)÷3. Heart rate was measured via the pulse oxymeter and Po-ne-mah data acquisition software system (Ponemah Physiology Platform, Gould Instrument Systems, Inc.).
A ventral midline incision was made into the abdominal cavity. The incision was about 5 cm in length just above the pubis. The fat and muscle was bluntly dissected away to reveal the hypogastric nerve which runs down the body cavity. It was essential to keep close to the side curve of the pubis wall in order to avoid damaging the femoral vein and artery which lie above the pubis. The sciatic and pelvic nerves lie deeper and were located after further dissection on the dorsal side of the rabbit. Once the sciatic nerve is identified, the pelvic nerve was easily located. The term pelvic nerve is loosely applied; anatomy books on the subject fail to identify the nerves in sufficient detail. However, stimulation of the nerve causes an increase in vaginal and clitoral blood flow in females and in intracavernosal pressure and cavernosal blood flow in males, and innervation of the pelvic region. […]

[6] = unbound plasma and whole brain concentrations in anaesthetised ferrets; conditions: s.c. dosing at the ED100 dose, n = 1
[7] = target: human recombinant D3 (hD3) receptors (Homo sapiens, UniProt P35462, G9S); assay: inhibition of binding of [3H]-R(+)-7-OH-DPAT; conditions: n = 3-11
D1 receptor = D1 receptor (Homo sapiens, UniProt P21728); conditions: quoted abstract; cited from earlier work
[8] = tested on: ovariectomized, partially hormone-repleted female rats; conditions: 50 ug/kg P.O., 15-30 min after dosing; from 22+/−8%; cited from earlier work
male rhesus monkeys = conditions: 20 and 50 ug/kg P.O., evaluated for 4 hr; cited from earlier work
D2 [9] = target: T1, D2 (Homo sapiens, UniProt P14416); conditions: quoted abstract; cited from earlier work
dopamine D3 receptor = dopamine D3 receptor (Homo sapiens, UniProt P35462); assay: cell-based
D2 [10] = target: T1, D2; conditions: WO 93/23035; cited from earlier work
D3 = D3 (Homo sapiens, UniProt P35462); conditions: WO 93/23035; cited from earlier work
anaesthetised dog [11] = assay: emesis in the chloralose anaesthetised dog; conditions: male, beagle, dog, in vivo, sc, 30 min
Description: Male beagles, 11-17 kg were used. Following an overnight fast, animals were anaesthetised with chloralose (80 mg kg^−1 i.v.), having first been injected with an anaesthetic dose of the short acting barbiturate, thiopentone (15 mg kg^−1 i.v.). Following tracheal intubation, which ensured a patent airway even during the expulsion phase of the emetic response, the left femoral vein and artery were cannulated for further administration of anaesthetic and for recording haemodynamic parameters, respectively. […] During the stabilisation period, respiratory rate was monitored to ensure that central respiratory centres were not deeply depressed, since the CNS efferent component of the emetic reflex is essentially conveyed via respiratory motor neurones. […] Animals were observed closely for 30 min post-dose and motor (e.g. swallowing, eye blinking, limb movements, changes in respiratory rate and depth, retching and vomiting) and haemodynamic changes noted and recorded. […] At the end of an experiment animals were sacrificed with an overdose of pentobarbitone.
Observations made on individual animals were used to determine the percentage of animals that retched when injected with a particular dose level of test compound. Percentage of animals retching was then used to construct a dose response curve and an ED50 value determined from the appropriate curve.

Sequence of human dopamine D2 long receptor (P14416 whole entry): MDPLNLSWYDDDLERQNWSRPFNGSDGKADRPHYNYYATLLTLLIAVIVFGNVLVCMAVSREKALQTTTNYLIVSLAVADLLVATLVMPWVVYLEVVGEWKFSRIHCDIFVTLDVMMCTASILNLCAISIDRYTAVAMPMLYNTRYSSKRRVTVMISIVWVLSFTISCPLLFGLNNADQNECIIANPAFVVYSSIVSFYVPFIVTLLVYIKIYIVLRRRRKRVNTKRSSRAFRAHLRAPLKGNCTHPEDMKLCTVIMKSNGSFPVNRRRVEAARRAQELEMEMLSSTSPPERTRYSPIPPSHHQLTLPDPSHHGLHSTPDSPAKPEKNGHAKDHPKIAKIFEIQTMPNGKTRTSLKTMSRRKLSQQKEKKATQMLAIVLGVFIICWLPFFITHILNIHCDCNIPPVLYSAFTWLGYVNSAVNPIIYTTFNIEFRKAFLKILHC
T1 sequence (P14416 whole entry): as above
Sequence of human recombinant D2short (hD2s) receptors (P14416 1-414 isoform P14416-2): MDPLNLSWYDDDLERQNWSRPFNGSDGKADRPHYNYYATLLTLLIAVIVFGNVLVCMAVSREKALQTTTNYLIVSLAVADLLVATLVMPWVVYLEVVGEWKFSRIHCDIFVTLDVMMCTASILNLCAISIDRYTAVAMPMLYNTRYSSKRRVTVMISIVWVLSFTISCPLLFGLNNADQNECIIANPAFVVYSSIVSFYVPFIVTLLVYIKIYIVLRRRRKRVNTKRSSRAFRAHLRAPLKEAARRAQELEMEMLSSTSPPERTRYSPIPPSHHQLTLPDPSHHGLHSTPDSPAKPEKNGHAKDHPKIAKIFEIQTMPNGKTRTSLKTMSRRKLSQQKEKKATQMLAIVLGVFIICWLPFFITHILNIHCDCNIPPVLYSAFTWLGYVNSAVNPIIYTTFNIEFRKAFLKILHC
Sequence of human recombinant D3 (hD3) receptors (P35462 whole entry G9S): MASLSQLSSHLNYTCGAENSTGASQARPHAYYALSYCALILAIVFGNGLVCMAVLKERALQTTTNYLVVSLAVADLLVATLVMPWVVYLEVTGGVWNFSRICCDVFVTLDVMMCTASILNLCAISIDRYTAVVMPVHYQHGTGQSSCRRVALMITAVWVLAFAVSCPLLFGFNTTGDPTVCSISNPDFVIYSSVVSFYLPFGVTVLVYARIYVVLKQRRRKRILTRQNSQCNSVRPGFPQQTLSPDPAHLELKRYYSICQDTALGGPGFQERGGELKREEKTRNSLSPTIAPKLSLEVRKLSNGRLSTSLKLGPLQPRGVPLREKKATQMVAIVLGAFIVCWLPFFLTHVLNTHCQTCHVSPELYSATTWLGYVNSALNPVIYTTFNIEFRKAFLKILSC
Sequence of D3 (P35462 whole entry, species assumed): as the sequence (P35462 whole entry G9S) above, with S9G counted along it
Sequence of D3 receptors over D2 receptors (P35462 whole entry, species assumed): as the sequence (P35462 whole entry G9S) above, with S9G counted along it
Sequence of dopamine D3 receptor (P35462 whole entry, species assumed): as the sequence (P35462 whole entry G9S) above, with S9G counted along it
Sequence of D1 receptor (P21728 whole entry): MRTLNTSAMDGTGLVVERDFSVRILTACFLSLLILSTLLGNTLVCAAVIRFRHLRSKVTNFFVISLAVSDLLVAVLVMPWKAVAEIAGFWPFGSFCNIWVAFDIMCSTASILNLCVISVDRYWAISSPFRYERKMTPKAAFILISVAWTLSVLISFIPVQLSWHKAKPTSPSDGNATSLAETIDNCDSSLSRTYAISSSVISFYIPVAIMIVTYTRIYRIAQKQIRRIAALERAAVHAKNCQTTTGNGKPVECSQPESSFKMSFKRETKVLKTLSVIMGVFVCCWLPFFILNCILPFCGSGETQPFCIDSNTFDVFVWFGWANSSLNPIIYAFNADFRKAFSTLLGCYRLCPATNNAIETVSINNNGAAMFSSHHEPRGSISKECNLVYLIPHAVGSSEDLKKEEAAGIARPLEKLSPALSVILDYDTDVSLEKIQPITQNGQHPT

CCCN1CCOC(c2cc(O)cc(O)c2)C1 (racemic) [Example 15a + 15b (racemate)]
pEC50 [1]: < 5.00

CCCN1CCOC(c2ccc(F)c(O)c2)C1 (racemic) [Example 23a + 23b (racemate)]
pEC50 [1]: < 5.30

CCCN1CCOC(c2cc(O)cc(O)c2)C1 (single isomer, unassigned) [Example 15a, R-5-(4-Propylmorpholin-2-yl)benzene-1,3-diol]
pEC50 [1]: 5.76

CCCN1CCOC(c2ccc(F)c(O)c2)C1 (single isomer, unassigned) [Example 23a, R-(+)-2-Fluoro-5-(4-propylmorpholin-2-yl)phenol]
pEC50 [1]: < 5.30

CCc1cc(Cl)c(OC)c(C(=O)NC[C@@H]2CCCN2CC)c1O [(S)-eticlopride]
Antagonist potency ED100 versus 7-OH-DPAT-induced emesis (ferrets): 0.03 mg/kg
Brain conc^n [2]: 377 ng/g
Ki ([3]; read-out: Affinity estimates (pKi ± s.e.m.) hD2s (converted)): 0.501 nM

CN1CCc2cccc3c2[C@H]1Cc1ccc(O)c(O)c1-3 [Apomorphine]
Geometric mean ED30 (fall in TPR) (anaesthetised dog [4]; dog, in vivo): 11.7 μg/kg s.c.
cardiac output at the highest dose levels (anaesthetised dog [4]; dog, in vivo): approximately doubled
effect on cardiac output and heart rate (anaesthetised dog [4]; s.c.): increases in cardiac output and heart rate
effect on total vascular resistance (TVR; TPR) (anaesthetised dog [4]; s.c., doses up to 3000 μg/kg): reduction in total vascular resistance
proerectile effect (words) (telemetry rats): induce/enhance proerectile effects

CCCN(CCC)C1CCc2ccc(O)cc2C1 (stereo not shown) [Example 7-OH-DPAT]
emetic response, total retches and vomits (mean±s.e.m.) (ferrets; 0.1 mg/kg s.c., observed for 6 h, control animals): 78.0±9.0
agonist-induced erectile activity with concomitant L-741,626 and SB-277,011 (telemetry rats): abolishes all 7-OH-DPAT-induced erectile activity
proerectile effect (words) (telemetry rats): induce/enhance proerectile effects

CCCN1CCOC(c2ccc(O)c(C(N)=O)c2)C1 (stereo not shown) [Example 35, 2-Hydroxy-5-(4-propylmorpholin-2-yl)benzamide]
pEC50 [1]: ~4.98

CCCN1CCOC(c2ccc(O)c(N)c2)C1 (stereo not shown) [Example 37, 2-Amino-4-(4-propylmorpholin-2-yl)phenol]
pEC50 [1]: < 4.00

CCCN1CCO[C@H]2c3cc(C(N)=O)ccc3CC[C@@H]21 [Example S32504]
selectivity for D3 receptors over D2 receptors [5]: 251 fold
penile intracavernosal pressure and cavernosal blood flow in male rabbits (New Zealand rabbits): beneficially enhances
vaginal and clitoral blood flow in female rabbits (New Zealand rabbits): beneficially enhances

CCCN(CCC)[C@@H]1CCc2cc(CS(=O)(=O)c3ccc(OC)cc3)ccc2C1 [GR218231]
animals in which emesis was blocked (ferrets; highest dose of 10 mg/kg): ⅔
Antagonist potency ED100 versus 7-OH-DPAT-induced emesis (ferrets): >10 mg/kg
Affinity estimates (pKi ± s.e.m.) hD2s [3]: 6.8 ± 0.44
Brain conc^n [6]: 1670 ng/g
Plu/Ki hD2s (ratio of unbound plasma concentration to binding affinity) [6]: 1.3
Plu/Ki hD3 (ratio of unbound plasma concentration to binding affinity) [6]: 95

OC1(c2ccc(Cl)cc2)CCN(Cc2c[nH]c3ccccc23)CC1 [L-741,626]
Antagonist potency ED100 versus 7-OH-DPAT-induced emesis (ferrets): 3 mg/kg
Affinity estimates (pKi ± s.e.m.) hD3 [7]: 6.6 ± 0.24
Brain conc^n [6]: 250 ng/g

CN[C@@H]1Cc2cccc3[nH]c(=S)n(c23)C1 [PNU-142774E]
pKi (D1 receptor): < 5.15
lordosis/mounts ratio (L/M) [8]: 65+/−10%
non-contact sexual behavior (erections, masturbation) (male rhesus monkeys): increase in sexual behavior
pKi (D2 [9]): 8.15

CCCNC1CCc2nc(N)sc2C1.Cl.Cl (stereo not shown) [Pramipexole, 2-amino-4,5,6,7-tetrahydro-6-propylamino-benzthiazole-dihydrochloride]
agonist-induced erectile activity with concomitant L-741,626 and SB-277,011 (telemetry rats): abolishes all pramipexole-induced erectile activity
No of erectogenic events/15 min (telemetry rats; Pramipexole 0.1 μg/kg s.c.): 2.8 ± 0.2 n = 5 erectogenic events/15 min
proerectile effect (words) (telemetry rats): induces a proerectile effect
proerectile effect (words) (telemetry rats; listed as pramipexole): induce/enhance proerectile effects
pEC50 (dopamine D3 receptor): 9.21

CCCN1CCC[C@@H]2Cc3nc(N)ncc3C[C@H]21 [Quinelorane]
pEC50 [1]: 8.21

CCCN(CCC)CCc1cccc2c1CC(=O)N2 [Ropinirole]
binding D2 (D2 [10]): 1380 nM
pEC50 [1]: 7.79
binding D3 (D3): 69 nM

c1ccc(N2CCN(C[C@H]3CC[C@H](Nc4ncccn4)CC3)CC2)cc1 [trans-[4-[(4-Phenylpiperazin-1-yl)methyl]cyclohexyl]-pyrimidin-2-ylamine]
dose at which emesis was observed (anaesthetised dog [11]): 0.1 mg/kg
Geometric mean ED30 (fall in TPR) (anaesthetised dog [4]; dog, in vivo): 44.6 μg/kg s.c.
cardiac output at the highest dose levels (anaesthetised dog [4]; dog, in vivo): approximately doubled
effect on cardiac output and heart rate (anaesthetised dog [4]; dog, in vivo, sc): increases in cardiac output and heart rate
pEC50 [1]: 8.42
erectogenic effect in the presence of selective D2 receptor antagonist L-741,626 (telemetry rats; L-741,626 2 mg/kg s.c.): abolished
proerectile effect (words) (telemetry rats): produced erections
